This is an account of results in patent US20230203063A1, “TRICYCLIC PYRIDONES AND PYRIMIDONES” (Erasca, Inc., priority 2019, published 2023).

The target of the assay is T1, mutant G12C K-RAS (Homo sapiens, UniProt P01116, G12C).
T1 construct: made in house; host or cells: E. coli BL21
The assay can be described thus: covalent adduct formation (CAF) with mutant G12C K-RAS. Format: binding. Conditions: for % CAF @ 10 uM, 1 h: Table 6; for % CAF(60 min) / covalent adduct formation (CAF): 10 micromolar, after 60 minutes; for covalent adduct formation (CAF): Table 7. The arrangement: covalent adduct formation (CAF): unit not given here. How it is done: Embodiments disclosed herein are further illustrated by the following examples in Tables 1-4 and the Examples hereinbelow. The Tables indicate the compound number, structure, the observed mass spectral molecular weight peak, and covalent adduct formation (CAF) with a mutant G12C K-RAS after 60 minutes at a concentration of 10 micromolar.

Regarding `C=CC(=O)N1C[C@H](C)N(c2nc(=O)n3c4c(c(-c5c(O)cccc5F)c(Cl)cc24)OC[C@@H]3CN2CCOCC2)C[C@H]1C` (atropisomer, axis not shown) [Example 208, (3R,10R)-7-((2S,5R)-4-acryloyl-2,5-dimethyl-piperazin-1-yl)-9-chloro-10-(2-fluoro-6-hydroxyphenyl)-3-(morpholinomethyl)-2,3-dihydro-5H-[1,4]-oxazino[2,3,4-ij]-quinazolin-5-one], the “% CAF @ 10 uM, 1 h” value is 0%.
The same measure, in the same setting: then `C=CC(=O)N1C[C@H](C)N(c2nc(=O)n3c4c(c(-c5c(O)cccc5F)c(Cl)cc24)OC[C@H]3CN2CCOCC2)C[C@H]1C` (atropisomer, axis not shown) [Example 210, (3R,10R)-7-((2S,5R)-4-acryloyl-2,5-dimethyl-piperazin-1-yl)-9-chloro-10-(2-fluoro-6-hydroxyphenyl)-3-(morpholinomethyl)-2,3-dihydro-5H-[1,4]-oxazino-[2,3,4-ij]-quinazolin-5-one], with 0%; and `C=CC(=O)N1CCN(c2nc(=O)n3c4c(c(-c5c(O)cccc5F)c(Cl)cc24)OC[C@H]3CN2CCC(F)(F)C2)[C@@H](C)C1` (atropisomer, axis not shown) [Example 227, (3R,10R)-7-((S)-4-acryloyl-2-methyl-piperazin-1-yl)-9-chloro-3-((3,3-difluoropyrrolidin-1-yl)methyl)-10-(2-fluoro-6-hydroxyphenyl)-2,3-dihydro-5H-[1,4]-oxazino-[2,3,4-ij]-quinazolin-5-one], with 0%.
The same measure, in the same setting: then `C=CC(=O)N1C[C@H](C)N(c2nc(=O)n3c4c(c(-c5c(O)cccc5F)c(Cl)cc24)OC[C@@H]3CN(C)CC(F)(F)F)C[C@H]1C` (atropisomer, axis not shown) [Example 239, (3S,10R)-7-((2S,5R)-4-acryloyl-2,5-dimethylpiperazin-1-yl)-9-chloro-10-(2-fluoro-6-hydroxyphen-yl)-3-((methyl(2,2,2-trifluoroethyl)amino)-methyl)-2H-[1,4]-oxazino[2,3,4-ij]-quinazolin-5(3H)-one], with 3%.
Take `C=CC(=O)N1C[C@H](C)N(c2nc(=O)n3c4c(c(-c5c(O)cccc5F)c(Cl)cc24)OC[C@H]3CN(C)CC(F)(F)F)C[C@H]1C` (atropisomer, axis not shown) [Example 241, (3R,10R)-7-((2S,5R)-4-acryloyl-2,5-dimethylpiperazin-1-yl)-9-chloro-10-(2-fluoro-6-hydroxyphen-yl)-3-((methyl(2,2,2-trifluoroethyl)amino)-methyl)-2H-[1,4]-oxazino[2,3,4-ij]-quinazolin-5(3H)-one]: the “% CAF @ 10 uM, 1 h” value was 0%.
On to `C=CC(=O)N1C[C@H](C)N(c2nc(=O)n3c4c(c(-c5c(O)cccc5F)c(Cl)cc24)OC[C@H]3Cn2cccn2)C[C@H]1C` (atropisomer, axis not shown) [Example 245, (3R,10R)-3-((1H-pyrazol-1-yl)methyl)-7-((2S,5R)-4-acryloyl-2,5-dimethylpiperazin-1-yl)-9-chloro-10-(2-fluoro-6-hydroxyphen-yl)-2H-[1,4]oxazino-[2,3,4-ij]quinazolin-5(3H)-one], for which the “% CAF @ 10 uM, 1 h” value stood at 0%.
Still for that read-out and setting: then `C=CC(=O)N1C[C@H](C)N(c2nc(=O)n3c4c(c(-c5c(O)cccc5F)c(Cl)cc24)OC[C@H]3CN2CCN(C)CC2)C[C@H]1C` (atropisomer, axis not shown) [Example 300, (3R,10R)-7-((2S,5R)-4-acryloyl-2,5-dimethylpiperazin-1-yl)-9-chloro-10-(2-fluoro-6-hydroxyphen-yl)-3-((4-methylpiper-azin-1-yl)methyl)-2,3-dihydro-5H-[1,4]-oxazino[2,3,4-ij]-quinazolin-5-one], with 0%; and `C=CC(=O)N1C[C@H](C)N(c2nc(=O)n3c4c(c(-c5c(O)cccc5F)c(Cl)cc24)OC[C@@H]3CN2CCN(C)CC2)C[C@H]1C` (atropisomer, axis not shown) [Example 305, (3S,10R)-7-((2S,5R)-4-acryloyl-2,5-dimethylpiperazin-1-yl)-9-chloro-10-(2-fluoro-6-hydroxyphen-yl)-3-((4-methylpiper-azin-1-yl)methyl)-2,3-dihydro-5H-[1,4]-oxazino[2,3,4-ij]-quinazolin-5-one], with 0%; and `C=CC(=O)N1C[C@H](C)N(c2nc(=O)n3c4c(c(-c5c(C)ccc6[nH]ncc56)c(Cl)cc24)OC[C@H]3Cn2cccn2)C[C@H]1C` (atropisomer, axis not shown) [Example 319, (3R,10S)-3-((1H-pyrazol-1-yl)methyl)-7-((2S,5R)-4-acryloyl-2,5-dimethylpiperazin-1-yl)-9-chloro-10-(5-methyl-1H-indazol-4-yl)-2,3-dihydro-5H-[1,4]oxazino[2,3,4-ij]-quinazolin-5-one], with 0%.
As for `C=CC(=O)N1CCN(c2nc(=O)n3c4c(c(-c5c(O)cccc5F)c(Cl)cc24)OCC3)CC1` [Example 1, 7-(4-acryloylpiperazin-1-yl)-9-chloro-10-(2-fluoro-6-hydroxyphenyl)-2H-[1,4]oxazino[2,3,4-ij]quinazolin-5(3H)-one], the “% CAF(60 min)” value (Table 1) was 89%.
Same read-out and setting: then `C=CC(=O)N1CC2(CCN(c3nc(=O)n4c5c(c(-c6c(O)cccc6F)c(Cl)cc35)OCC4)CC2)C1` [Example 2, 7-(2-acryloyl-2,7-diazaspiro[3.5]nonan-7-yl)-9-chloro-10-(2-fluoro-6-hydroxyphenyl)-2H-[1,4]oxazino[2,3,4-ij]quinazolin-5(3H)-one], with 42.5%; and `C=CC(=O)N1CCN(c2nc(=O)n3c4c(c(-c5c(C)ccc6[nH]ncc56)c(Cl)cc24)OCC3)CC1` [Example 3, 7-(4-acryloylpiperazin-1-yl)-9-chloro-10-(5-methyl-1H-indazol-4-yl)-2H-[1,4]oxazino[2,3,4-ij]quinazolin-5(3H)-one], with 67.4%.
Consider `C=CC(=O)N1CCN(c2nc(=O)n3c4c(c(-c5c(O)cccc5F)c(Cl)cc24)OC[C@H]3CO)[C@@H](C)C1` [Example 23, (3R,10R)-7-((S)-4-acryloyl-2-methylpiperazin-1-yl)-9-chloro-10-(2-fluoro-6-hydroxyphenyl)-3-(hydroxymethyl)-2H-[1,4]oxazino[2,3,4-ij]quinazolin-5(3H)-one], for which the “% CAF(60 min)” value (Table 2) was 0%.
As to `C=CC(=O)N1C[C@H](C)N(c2c(C#N)c(=O)n3c4c(c(-c5ccc(F)cc5F)ccc24)OC[C@@H]3CN(C)C)C[C@H]1C` [Example 51, (S)-7-((2S,5R)-4-acryloyl-2,5-dimethylpiperazin-1-yl)-10-(2,4-difluorophenyl)-3-((dimethylamino)methyl)-5-oxo-3,5-dihydro-2H-[1,4]oxazino[2,3,4-ij]quinoline-6-carbonitrile], under “Table 4”, the “% CAF(60 min)” value was 0%.
Still for that read-out and setting: then `C=CC(=O)N1C[C@H](C)N(c2c(C#N)c(=O)n3c4c(c(-c5ccc(F)cc5F)ccc24)OC[C@H]3CN(C)C)C[C@H]1C` [Example 52, (R)-7-((2S,5R)-4-acryloyl-2,5-dimethylpiperazin-1-yl)-10-(2,4-difluorophenyl)-3-((dimethylamino)methyl)-5-oxo-3,5-dihydro-2H-[1,4]oxazino[2,3,4-ij]quinoline-6-carbonitrile], with 0%.
Turning to `C=CC(=O)N1CCN(c2nc(=O)n3c4c(c(-c5ccc(F)cc5F)c(Cl)cc24)SC(C)(C)C3)[C@@H](C)C1` [Example 76, 7-((S)-4-acryloyl-2-methylpiperazin-1-yl)-9-chloro-10-(2,4-difluorophenyl)-2,2-dimethyl-2,3-dihydro-5H-[1,4]thiazino[2,3,4-ij]quinazolin-5-one], the “covalent adduct formation (CAF)” value is given as 86.8.
Consider `C=CC(=O)N1CCN(c2nc(=O)n3c4c(c(-c5ccc(F)cc5F)c(Cl)cc24)SC[C@H]3C)[C@@H](C)C1` [Example 99, (3R)-7-((S)-4-acryloyl-2-methylpiperazin-1-yl)-9-chloro-10-(2,4-difluorophenyl)-3-methyl-2H-[1,4]thiazino[2,3,4-ij]quinazolin-5(3H)-one], for which the “covalent adduct formation (CAF)” value came to 87.2.
The same measure, in the same setting: then `C=CC(=O)N1CCN(c2nc(=O)n3c4c(c(-c5ccc(F)cc5F)c(Cl)cc24)SC[C@H]3COC)[C@@H](C)C1` [Example 130, (3R)-7-((S)-4-acryloyl-2-methylpiperazin-1-yl)-9-chloro-10-(2,4-difluorophenyl)-3-(methoxymethyl)-2,3-dihydro-5H-[1,4]thiazino[2,3,4-ij]quinazolin-5-one], with 94.5; and `C=CC(=O)N1CCN(c2nc(=O)n3c4c(c(-c5c(F)cc(F)cc5F)c(Cl)cc24)SC[C@H]3COC)[C@@H](C)C1` [Example 137, (R)-7-((S)-4-acryloyl-2-methylpiperazin-1-yl)-9-chloro-3-(methoxymethyl)-10-(2,4,6-trifluorophenyl)-2,3-dihydro-5H-[1,4]thiazino[2,3,4-ij]quinazolin-5-one], with 86.8.
As to `C=CC(=O)N1CCN(c2nc(=O)n3c4c(c(-c5c(O)cccc5F)c(Cl)cc24)OC[C@@H]3CN2CCOCC2)[C@@H](C)C1` [Example 195, (3S,10R)-7-((S)-4-acryloyl-2-methylpiperazin-1-yl)-9-chloro-10-(2-fluoro-6-hydroxyphenyl)-3-(morpholinomethyl)-2,3-dihydro-5H-[1,4]oxazino[2,3,4-ij]quinazolin-5-one], the “% CAF @ 10 uM, 1 h” value was 0%.
Consider `C=CC(=O)N1C[C@H](C)N(c2nc(=O)n3c4c(c(-c5ccccc5C(F)(F)F)c(Cl)cc24)OCC3)C[C@H]1C` [Example 197, 7-((2S,5R)-4-acryloyl-2,5-dimethylpiperazin-1-yl)-9-chloro-10-(2-(trifluoromethyl)phenyl)-2,3-dihydro-5H-[1,4]oxazino[2,3,4-ij]quinazolin-5-one], for which the “% CAF @ 10 uM, 1 h” value was 0%.
